Experimental data published in the supplement of paper PMC13207355.

Assays:
Details in all cases: exposure time: 72 h
[1] = test system: E13 (patient-derived glioblastoma stem cells of classical subtype); assay: surviving fraction (nuclei count normalised to DMSO); higher = more cells surviving (less toxic)
[2] = test system: E21 (patient-derived glioblastoma stem cells of mesenchymal subtype); assay: as above
[3] = test system: E28 (patient-derived glioblastoma stem cells of classical subtype); assay: as above
[4] = test system: E31 (patient-derived glioblastoma stem cells of proneural subtype); assay: as above
[5] = test system: E34 (patient-derived glioblastoma stem cells of proneural subtype); assay: as above
[6] = test system: E57 (patient-derived glioblastoma stem cells of mesenchymal subtype); assay: as above
[7] = test system: FT3469 (normal neural stem cell line); assay: as above
[8] = test system: E13; assay: phenotypic distance (Euclidean, principal components) from DMSO controls (arbitrary units); higher = stronger morphological change
[9] = test system: E21; assay: as above
[10] = test system: E28; assay: as above
[11] = test system: E31; assay: as above
[12] = test system: E34; assay: as above
[13] = test system: E57; assay: as above
[14] = test system: FT3469; assay: as above
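Throughout, for phenotypic distance (Euclidean, principal components) from DMSO controls: cell Painting imaging in 384-well plates, CellProfiler features reduced to at least 20 principal components, Euclidean distance versus same-plate DMSO vehicle wells (0.1% v/v), median over six images per well.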
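Throughout, for surviving fraction (nuclei count normalised to DMSO): nuclei counted by high-content imaging of Hoechst-stained cells in laminin-coated 384-well plates, relative to 0.1% DMSO vehicle wells, with staurosporine as cell-death control.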

Clc1ccc(CSC(Cn2ccnc2)c2ccc(Cl)cc2Cl)cc1 (stereo not drawn) [Sulconazole nitrate]
Details | phenotypic distance | surviving fraction
[1], 4.1 nM | – | 0.897
[1], 12.3 nM | – | 0.833
[1], 37 nM | – | 0.964
[1], 111.1 nM | – | 0.887
[1], 333.3 nM | – | 0.841
[1], 1000 nM | – | 0.82
[1], 3000 nM | – | 0.799
[2], 4.1 nM | – | 0.956
[2], 12.3 nM | – | 1.01
[2], 37 nM | – | 1.03
[2], 111.1 nM | – | 0.956
[2], 333.3 nM | – | 0.962
[2], 1000 nM | – | 0.952
[2], 3000 nM | – | 0.859
[3], 4.1 nM | – | 0.969
[3], 12.3 nM | – | 0.978
[3], 37 nM | – | 0.902
[3], 111.1 nM | – | 0.886
[3], 333.3 nM | – | 0.956
[3], 1000 nM | – | 0.917
[3], 3000 nM | – | 0.839
[4], 4.1 nM | – | 0.929
[4], 12.3 nM | – | 0.922
[4], 37 nM | – | 1.01
[4], 111.1 nM | – | 1.02
[4], 333.3 nM | – | 0.984
[4], 1000 nM | – | 1.09
[4], 3000 nM | – | 1.17
[5], 4.1 nM | – | 0.824
[5], 12.3 nM | – | 1.02
[5], 37 nM | – | 0.954
[5], 111.1 nM | – | 0.957
[5], 333.3 nM | – | 0.909
[5], 1000 nM | – | 0.932
[5], 3000 nM | – | 0.766
[6], 4.1 nM | – | 0.975
[6], 12.3 nM | – | 0.945
[6], 37 nM | – | 0.995
[6], 111.1 nM | – | 0.972
[6], 333.3 nM | – | 1.07
[6], 1000 nM | – | 1.03
[6], 3000 nM | – | 0.934
[7], 4.1 nM | – | 0.831
[7], 12.3 nM | – | 1.03
[7], 37 nM | – | 0.945
[7], 111.1 nM | – | 0.801
[7], 333.3 nM | – | 0.934
[7], 1000 nM | – | 0.869
[7], 3000 nM | – | 0.734
[8], 4.1 nM | 0.507 | –
[8], 12.3 nM | 0.659 | –
[8], 37 nM | 0.68 | –
[8], 111.1 nM | 0.822 | –
[8], 333.3 nM | 1.02 | –
[8], 1000 nM | 1.17 | –
[8], 3000 nM | 0.957 | –
[9], 4.1 nM | 0.971 | –
[9], 12.3 nM | 4.31 | –
[9], 37 nM | 0.531 | –
[9], 111.1 nM | 0.857 | –
[9], 333.3 nM | 1.11 | –
[9], 1000 nM | 0.859 | –
[9], 3000 nM | 1.68 | –
[10], 4.1 nM | 0.745 | –
[10], 12.3 nM | 0.557 | –
[10], 37 nM | 0.545 | –
[10], 111.1 nM | 0.553 | –
[10], 333.3 nM | 0.469 | –
[10], 1000 nM | 0.567 | –
[10], 3000 nM | 0.697 | –
[11], 4.1 nM | 0.532 | –
[11], 12.3 nM | 0.425 | –
[11], 37 nM | 0.596 | –
[11], 111.1 nM | 0.731 | –
[11], 333.3 nM | 1.14 | –
[11], 1000 nM | 1.17 | –
[11], 3000 nM | 1.4 | –
[12], 4.1 nM | 1.17 | –
[12], 12.3 nM | 0.4 | –
[12], 37 nM | 0.413 | –
[12], 111.1 nM | 0.586 | –
[12], 333.3 nM | 0.864 | –
[12], 1000 nM | 0.895 | –
[12], 3000 nM | 1.02 | –
[13], 4.1 nM | 0.709 | –
[13], 12.3 nM | 0.952 | –
[13], 37 nM | 0.398 | –
[13], 111.1 nM | 0.55 | –
[13], 333.3 nM | 0.671 | –
[13], 1000 nM | 0.779 | –
[13], 3000 nM | 1.99 | –
[14], 4.1 nM | 0.821 | –
[14], 12.3 nM | 0.617 | –
[14], 37 nM | 0.893 | –
[14], 111.1 nM | 0.999 | –
[14], 333.3 nM | 1.06 | –
[14], 1000 nM | 0.92 | –
[14], 3000 nM | 1.39 | –
